According to ChEMBL document CHEMBL5365425, “Discovery of novel methionine adenosyltransferase 2A (MAT2A) allosteric inhibitors by structure-based virtual screening” (Bioorg Med Chem Lett, 2023):
In brackets after ≈: the same amount, converted by molar mass. Activity calls are given as the source filed them. No cut-off for these calls is given here.

Legend:
[1] = target: T1, S-adenosylmethionine synthase isoform type-1 (Homo sapiens, UniProt Q00266); assay: Inhibition of recombinant human MAT1A
T1 sequence (Q00266 whole entry, canonical isoform): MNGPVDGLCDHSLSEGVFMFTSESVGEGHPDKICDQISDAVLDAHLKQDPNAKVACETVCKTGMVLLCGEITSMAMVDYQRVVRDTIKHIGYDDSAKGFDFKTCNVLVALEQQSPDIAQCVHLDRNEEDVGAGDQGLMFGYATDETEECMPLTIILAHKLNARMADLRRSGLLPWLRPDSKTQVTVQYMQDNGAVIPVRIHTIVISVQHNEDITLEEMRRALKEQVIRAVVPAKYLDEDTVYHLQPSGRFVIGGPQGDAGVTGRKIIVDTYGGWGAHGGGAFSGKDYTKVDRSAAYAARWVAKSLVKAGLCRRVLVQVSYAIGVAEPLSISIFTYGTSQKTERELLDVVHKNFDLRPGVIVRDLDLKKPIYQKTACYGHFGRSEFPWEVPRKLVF

[2] = target: T2, S-adenosylmethionine synthase isoform type-2 (Homo sapiens, UniProt P31153); assay: Inhibition of human MAT2A
Target sequence in this assay (P31153 whole entry, canonical isoform): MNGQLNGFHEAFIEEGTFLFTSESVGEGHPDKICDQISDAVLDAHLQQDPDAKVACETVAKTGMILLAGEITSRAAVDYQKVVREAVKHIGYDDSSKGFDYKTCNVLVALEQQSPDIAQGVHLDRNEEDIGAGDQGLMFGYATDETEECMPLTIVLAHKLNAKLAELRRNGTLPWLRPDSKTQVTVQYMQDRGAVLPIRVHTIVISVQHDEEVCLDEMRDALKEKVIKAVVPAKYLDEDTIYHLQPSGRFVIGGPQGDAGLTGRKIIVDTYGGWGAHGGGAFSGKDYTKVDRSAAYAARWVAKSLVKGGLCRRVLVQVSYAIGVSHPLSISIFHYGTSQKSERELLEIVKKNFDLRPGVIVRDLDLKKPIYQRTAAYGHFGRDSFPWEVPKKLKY

[3] = target: T1, S-adenosylmethionine synthase isoform type-1; assay: Inhibition of human MAT1A
[4] = target: T2, S-adenosylmethionine synthase isoform type-2; assay: Inhibition of recombinant human MAT2A
[5] = Solubility of the compound; type: physicochemical
[6] = Lipophilicity, log D of compound at pH 7.4; type: physicochemical; details: buffer
[7] = target: T1, S-adenosylmethionine synthase isoform type-1; assay: Activation of human MAT1A; details: filed as activator
[8] = tested on: HCT-116; assay: Antiproliferative activity against MTAP-/- isogenic variant of human HCT-116 cells assessed as inhibition of cell growth by proliferation assay; type: functional, cell-based
[9] = tested on: HCT-116; assay: Antiproliferative activity against human HCT-116 cells assessed as inhibition of cell growth by proliferation assay; type: functional, cell-based

Row | SMILES | inhibition [1] | IC50 [2] | IC50 [3] | inhibition [4] | solubility [5] | logD [6] | IC50 [4] | Activity [7] | IC50 [8] | IC50 [9]
1 | Cn1cc2cc(-n3cc4cnc(NCC(F)(F)F)nc4c(-c4ccc(OC(F)F)cc4)c3=O)ccc2n1 | Active | 0.05 µM | > 10 µM | Active | – | – | – | – | – | –
2 | COc1ccc2oc3cc(C)[n+]([O-])c(-c4ccccc4)c3c2c1 | – | – | – | – | 15 µM (≈ 4.58 µg/mL) | 2.3 | 1.31 µM | – | – | –
3 | CN(C)CCc1nnc2cc(-c3ccccc3)c3cc(Cl)ccc3n12 | Active | 0.412 µM | – | Active | – | – | – | Active | – | –
4 | CCn1ncc2c(C(=O)Nc3ccc4nn(C)cc4c3)cc(C3CC3)nc21 | – | – | – | – | 2 µM (≈ 0.721 µg/mL) | 2.8 | 0.078 µM | – | 1.71 µM | > 10 µM
5 | CCn1ncc2c(C(=O)Nc3ccc4ncccc4c3)cc(C3CC3)nc21 | – | – | – | – | 13 µM (≈ 4.65 µg/mL) | 3.2 | 0.277 µM | – | 6.41 µM | > 10 µM
6 | CCn1ncc2c(C(=O)Nc3ccc4ncn(C)c4c3)cc(C3CC3)nc21 | – | – | – | – | 49 µM (≈ 17.7 µg/mL) | 2.6 | 0.205 µM | – | 7.17 µM | > 10 µM
7 | CCn1ncc2c(C(=O)N(C)c3ccc4nn(C)cc4c3)cc(C3CC3)nc21 | – | – | – | – | 94 µM (≈ 35.2 µg/mL) | 2.2 | > 10 µM | – | – | –
8 | CC(C)n1ncc2c(C(=O)Nc3ccc4ncccc4c3)cc(C3CC3)nc21 | – | – | – | – | 4 µM (≈ 1.49 µg/mL) | 3.7 | 3.71 µM | – | > 10 µM | > 10 µM
9 | CC(C)n1ncc2c(C(=O)Nc3ccc4nccnc4c3)cc(C3CC3)nc21 | – | – | – | – | 2 µM (≈ 0.745 µg/mL) | 3.5 | > 10 µM | – | – | –
10 | CCn1ncc2c(C(=O)Nc3ccc4ncsc4c3)cc(C3CC3)nc21 | – | – | – | – | 1 µM (≈ 0.363 µg/mL) | 3.4 | 0.172 µM | – | 3.86 µM | > 10 µM
11 | CCn1ncc2c(C(=O)Nc3ccc4nn(C)c(C)c4c3)cc(C3CC3)nc21 | – | – | – | – | 9 µM (≈ 3.37 µg/mL) | 2.9 | 0.09 µM | – | 3.19 µM | > 10 µM
12 | O=c1nc(N2CC[C@@H](F)C2)c2ccc(Cl)cc2n1-c1ccccc1 | Active | – | 0.813 µM | Active | – | – | – | – | – | –
13 | CCCCn1ncc2c(C(=O)Nc3ccc4nn(C)cc4c3)cc(C3CC3)nc21 | – | – | – | – | 4 µM (≈ 1.55 µg/mL) | 3.2 | > 10 µM | – | – | –
14 | COc1ccc(-c2c3c(cc(C)[n+]2[O-])oc2ccc(OC)cc23)cc1 | – | – | – | – | 42 µM (≈ 14.1 µg/mL) | 2.5 | 0.145 µM | – | 7.55 µM | > 10 µM
15 | CC(C)n1ncc2c(C(=O)Nc3ccc4n[nH]cc4c3)cc(C3CC3)nc21 | – | – | – | – | 19 µM (≈ 6.85 µg/mL) | 3.3 | 1.84 µM | – | > 10 µM | > 10 µM
16 | COc1ccc2oc3cc(C)[n+]([O-])c(-c4ccc(Cl)cc4)c3c2c1 | – | – | – | – | 14 µM (≈ 4.76 µg/mL) | 2.8 | 0.122 µM | – | 3.12 µM | 7.93 µM
17 | CCn1ncc2c(C(=O)Nc3ccc4[nH]ncc4c3)cc(C3CC3)nc21 | – | – | – | – | 23 µM (≈ 7.97 µg/mL) | 2.7 | 0.469 µM | – | > 10 µM | > 10 µM
18 | CCn1ncc2c(C(=O)Nc3ccc4c(c3)ncn4C)cc(C3CC3)nc21 | – | – | – | – | 47 µM (≈ 16.9 µg/mL) | 2.6 | 0.303 µM | – | 9.96 µM | > 10 µM
19 | CCn1cc2cc(NC(=O)c3cc(C4CC4)nc4c3cnn4CC)ccc2n1 | – | – | – | – | 32 µM (≈ 12 µg/mL) | 3.1 | 0.068 µM | – | 2.42 µM | > 10 µM
20 | CCn1ncc2c(C(=O)Nc3ccc(OC)cc3)cc(C3CC3)nc21 | – | – | – | – | 3 µM (≈ 1.01 µg/mL) | 3.6 | 0.13 µM | – | 5.27 µM | > 10 µM
21 | COc1ccc2oc3cc(C)[n+]([O-])c(-c4ccc(C)cc4)c3c2c1 | – | – | – | – | 11 µM (≈ 3.51 µg/mL) | 2.7 | 0.051 µM | – | 4.96 µM | 9.23 µM
22 | COc1ccc(-c2c(Nc3ccccn3)[nH]c3c(C4=CCCCC4)c(-c4ccccc4)nn3c2=O)cc1 | Active | – | – | Active | – | – | – | Active | – | –
23 | CC(C)n1ncc2c(C(=O)Nc3ccc4nn(C)cc4c3)cc(C3CC3)nc21 | – | – | – | – | 3 µM (≈ 1.12 µg/mL) | 3.3 | 0.403 µM | – | > 10 µM | > 10 µM
